{"source": "paper PMC7046902", "about": "“Daphnane Diterpenoids from Trigonostemon lii and Inhibition Activities Against HIV-1” (Natural Products and Bioprospecting, 2020)", "key": {"[1]": {"biological_target": "T1, purified recombinant HIV-1 RT (Human immunodeficiency virus type 1 group M subtype B, UniProt P04585)", "T1 construct": "purified recombinant HIV-1 RT; purchased Roche", "experiment": "RT (reverse transcriptase) assay, ELISA RT kit", "format": "biochemical", "conditions": "read-out: EC50, inhibition of recombinant HIV-1 RT activity (converted)", "procedure": "(§1) HIV-1 RT activity was measured by ELISA RT kit (Roche) using a commercially available kit according to the protocol provided by the manufacturer. Samples were incubated with DIG-labeled-reaction mixture at 37 °C for 15 h. Anti-DIG-POD solution was added afterward followed by substrate ABTS. The absorbance at 405/490 nm (A405/490) was determined in the ELISA reader.\nas §1, with “e. RT (reverse transcriptase) assay. HIV-1” for “HIV-1”, “reader ^[4].” for “reader.”"}, "pNL4-3gp41(36G)V38E,N42S": {"test_system": "pNL4-3gp41(36G)V38E,N42S", "format": "cell-based, HIV-1", "conditions": "T20-resistant strain pNL4-3gp41(36G)V38E,N42S in C8166 cells"}, "[2]": {"test_system": "fusion of H9/HIV-1IIIB cells with uninfected C8166 cells", "experiment": "cells", "conditions": "Human immunodeficiency virus 1, C8166, 6 h, read-out: EC50, inhibition of fusion of H9/HIV-1IIIB cells with uninfected C8166 cells", "quoted_text": "(§4) C8166 cells (3 × 10^4) co-cultured with 1 × 10^4 virus (HIV-1IIIB) infected H9 cells in the presence or absence of the compound with various concentrations at 37 °C in a humidified atmosphere of 5% CO2. T20 was used as positive control. After 6 h incubation, the number of syncytia was scored under an inverted microscope [18].\n(§5) Co-cultivation assay. C8166 cells (3×10^4) co-cultured with 1×10^4 virus (HIV-1IIIB) infected H9 cells in the presence or absence of the compound with various concentrations at 37 °C in a humidified atmosphere of 5% CO2. Dextran sulfate (DS) was used as positive control. After 6 h incubation, the number of syncytia was scored under an inverted microscope ^[3]."}, "HIV-1IIIB": {"test_system": "HIV-1IIIB", "experiment": "microbe, parasite or virus in culture", "format": "cell-based", "conditions": "for EC50: Human immunodeficiency virus 1, 72 h, read-out: anti-HIV-1 EC50 (syncytia formation induced by HIV-1IIIB)", "procedure": "(§2) In the presence of 100 μL various concentrations of compounds, C8166 cells (4 × 10^5/mL) were infected with virus (HIV-1IIIB) at a multiplicity of infection (M.O.I) of 0.06. The final volume per well was 200 μL. Control assays were performed without the testing compounds in HIV-1IIIB infected and uninfected cultures. AZT was included as positive control. After 3 days of culture, the cytopathic effect (CPE) was measured by counting the number of syncytia (multinucleated giant cell). Percentage inhibition of syncytia formation was calculated and 50% effective concentration (EC50) was calculated.\nas §2, with “c. Syncytia assay. In” for “In”, “(4×10^5/mL)” for “(4 × 10^5/mL)”, “calculated ^[3].” for “calculated.”"}, "in vitro": {"experiment": "in vitro", "format": "cell-based", "conditions": "human; C8166 cells, MTT, 3 days; read-out: cytotoxicity CC50", "procedure": "(§3) Cellular toxicity of compounds was assessed by MTT method. Briefly, cells were seeded on a microtiter plate in the absence or presence of various concentrations of compounds in triplicate and incubated at 37 °C in a humid atmosphere of 5% CO2 for 3 days. Twenty microliters of MTT reagent (5 mg/mL in PBS) was added to each well, then incubated at 37 °C for 4 h, 100 μL of 50% DMF-20% SDS was added. After the formazan was dissolved completely, the plates were read on a Bio-Tek ELx 800 ELISA reader at 595 nm/630 nm (A595/630). The cytotoxic concentration that caused the reduction of viable cells by 50% (CC50) was calculated from dose–response curve.\nas §3, with “b. MTT-based cytotoxicity assay. Cellular” for “Cellular”, “4h,” for “4 h,”, “595nm/630” for “595 nm/630”, “dose-response curve ^[2].” for “dose–response curve.”"}, "pNL4-3gp41(36G)V38A,N42T": {"test_system": "pNL4-3gp41(36G)V38A,N42T", "format": "cell-based, HIV-1", "conditions": "T20-resistant strain pNL4-3gp41(36G)V38A,N42T in C8166 cells"}, "C8166": {"test_system": "C8166", "experiment": "in vitro", "format": "cell-based", "conditions": "C8166 cells, MTT, 3 days", "procedure": "as §3\nas §3, with “b. MTT-based cytotoxicity assay. Cellular” for “Cellular”, “4h,” for “4 h,”, “595nm/630” for “595 nm/630”, “dose-response curve ^[2].” for “dose–response curve.”"}, "HIV-1": {"test_system": "HIV-1", "conditions": "cited from earlier work"}, "[3]": {"test_system": "fusion of H9/HIV-1IIIB cells with uninfected C8166 cells", "conditions": "6 h", "quoted_text": "as §4, §5"}, "[4]": {"conditions": "C8166 cells, HIV-1IIIB, M.O.I 0.06, 3 days"}}, "data": [{"molecule": "C=C1C=C2C3(O)C1OC(=O)C(C)CCCCCCC(C)CC(O)(CO)C1(O)C4OC5(c6ccccc6)OC1C(C1OC1(CO)C3O)C2(O5)C4C", "note": "(stereo not drawn) [Compound 3, Trigonolactone E]", "values": [{"measurement": "EC50", "setting": "[1]", "value": "> 429", "unit": "µM"}, {"measurement": "EC50 (syncytium formation)", "setting": "pNL4-3gp41(36G)V38E,N42S", "value": 0.00443, "unit": "µg/mL"}, {"measurement": "EC50", "setting": "[2]", "value": 0.00185, "unit": "µg/mL"}, {"measurement": "selectivity index CC50/EC50", "setting": "HIV-1IIIB; C8166 cells, HIV-1IIIB", "value": 29610.17}, {"measurement": "EC50", "setting": "HIV-1IIIB; [4]", "value": 0.00059, "unit": "µg/mL"}, {"measurement": "CC50", "setting": "in vitro", "value": 17.5, "unit": "µg/mL"}]}, {"molecule": "C=C1C=C2C3(O)C1OC(=O)C(C)CCCCCCC(C)CC(C)(O)C1(O)C4OC5(c6ccccc6)OC1C(C1OC1(CO)C3O)C2(O5)C4C", "note": "(stereo not drawn) [Compound 1, Trigonolactone B]", "values": [{"measurement": "EC50", "setting": "[1]", "value": "> 439", "unit": "µM"}, {"measurement": "EC50 (syncytium formation)", "setting": "pNL4-3gp41(36G)V38E,N42S", "value": 0.0033, "unit": "µg/mL"}, {"measurement": "EC50", "setting": "[2]", "value": 0.00225, "unit": "µg/mL"}, {"measurement": "EC50 (syncytium formation)", "setting": "pNL4-3gp41(36G)V38A,N42T", "value": 0.0026, "unit": "µg/mL"}, {"measurement": "EC50", "setting": "HIV-1IIIB; [4]", "value": 0.00106, "unit": "µg/mL"}, {"measurement": "CC50", "setting": "in vitro", "value": 16.5, "unit": "µg/mL"}]}, {"molecule": "Cc1cn([C@H]2C[C@H](N=[N+]=[N-])[C@@H](CO)O2)c(=O)[nH]c1=O", "note": "[AZT, reference compound]", "values": [{"measurement": "anti-HIV-1 EC50 (syncytia formation induced by HIV-1IIIB)", "setting": "HIV-1IIIB; [4]", "value": 0.00508, "unit": "µg/mL"}, {"measurement": "cytotoxicity CC50", "setting": "C8166", "value": 1006.69, "unit": "µg/mL"}]}, {"molecule": "trigonothyrins C", "values": [{"measurement": "anti-HIV-1 EC50", "setting": "HIV-1", "value": 2.19, "unit": "µg/mL"}]}, {"molecule": "Enfuvirtide", "values": [{"measurement": "EC50, inhibition of fusion of H9/HIV-1IIIB cells with uninfected C8166 cells", "setting": "[3]", "value": 0.00977, "unit": "µg/mL"}, {"measurement": "anti-HIV-1 EC50 (syncytia formation induced by HIV-1IIIB)", "setting": "HIV-1IIIB; 1IIIB", "value": 0.09725, "unit": "µg/mL"}]}, {"molecule": "trigonothyrins F", "values": [{"measurement": "anti-HIV-1 EC50", "setting": "HIV-1", "value": 0.13, "unit": "µg/mL"}]}, {"molecule": "CC1CCCCCCC(C)C(=O)OC2C(=CCl)C=C3C2(O)C(O)C2(CO)OC2C2C4OC5(c6ccccc6)OC(C(C)C32O5)C4(O)C(O)(COC(=O)c2ccccc2O)C1", "note": "(stereo not drawn) [Compound 5, Trigocherriolide A]", "values": [{"measurement": "EC50", "setting": "[1]", "value": 313, "unit": "µM"}, {"measurement": "EC50 (syncytium formation)", "setting": "pNL4-3gp41(36G)V38E,N42S", "value": 0.00288, "unit": "µg/mL"}, {"measurement": "EC50", "setting": "[2]", "value": 0.00106, "unit": "µg/mL"}, {"measurement": "EC50 (syncytium formation)", "setting": "pNL4-3gp41(36G)V38A,N42T", "value": 0.00343, "unit": "µg/mL"}, {"measurement": "selectivity index CC50/EC50", "setting": "HIV-1IIIB; C8166 cells, HIV-1IIIB", "value": 5407.67}, {"measurement": "EC50", "setting": "HIV-1IIIB; [4]", "value": 0.00287, "unit": "µg/mL"}, {"measurement": "CC50", "setting": "in vitro", "value": 15.5, "unit": "µg/mL"}]}, {"molecule": "CC1CCCCCCC(C)C(=O)OC2C(=CCl)C=C3C2(O)C(O)C2(CO)OC2C2C4OC5(c6ccccc6)OC(C(C)C32O5)C4(O)C(C)(O)C1", "note": "(stereo not drawn) [Compound 4, Trigocherriolide B]", "values": [{"measurement": "EC50", "setting": "[1]", "value": 278, "unit": "µM"}, {"measurement": "EC50 (syncytium formation)", "setting": "pNL4-3gp41(36G)V38E,N42S", "value": 0.00297, "unit": "µg/mL"}, {"measurement": "EC50", "setting": "[2]", "value": 0.00873, "unit": "µg/mL"}, {"measurement": "selectivity index CC50/EC50", "setting": "HIV-1IIIB; C8166 cells, HIV-1IIIB", "value": 1811.43}, {"measurement": "EC50", "setting": "HIV-1IIIB; [4]", "value": 0.00822, "unit": "µg/mL"}, {"measurement": "CC50", "setting": "in vitro", "value": 14.9, "unit": "µg/mL"}]}, {"molecule": "C=C1C=C2C3(O)C1OC(=O)C(C)CCCCCCC(C)CC(O)(COC(=O)c1ccccc1O)C1(O)C4OC5(c6ccccc6)OC1C(C1OC1(CO)C3O)C2(O5)C4C", "note": "(stereo not drawn) [Compound 2, Trigonolactone D]", "values": [{"measurement": "EC50", "setting": "[1]", "value": 60.2, "unit": "µM"}, {"measurement": "EC50 (syncytium formation)", "setting": "pNL4-3gp41(36G)V38E,N42S", "value": 0.00272, "unit": "µg/mL"}, {"measurement": "EC50", "setting": "[2]", "value": 0.00462, "unit": "µg/mL"}, {"measurement": "EC50 (syncytium formation)", "setting": "pNL4-3gp41(36G)V38A,N42T", "value": 0.00583, "unit": "µg/mL"}, {"measurement": "selectivity index CC50/EC50", "setting": "HIV-1IIIB; C8166 cells, HIV-1IIIB", "value": 4468.42}, {"measurement": "EC50", "setting": "HIV-1IIIB; [4]", "value": 0.0019, "unit": "µg/mL"}, {"measurement": "CC50", "setting": "in vitro", "value": 8.49, "unit": "µg/mL"}]}, {"molecule": "CC1CCCCCCC(C)C(=O)OC2C(=CCl)C=C3C2(O)C(O)C2(CO)OC2C2C4OC5(c6ccccc6)OC(C(C)C32O5)C4(O)C(O)(CO)C1", "note": "(stereo not drawn) [Compound 6, Trigocheriolide E]", "values": [{"measurement": "EC50", "setting": "[1]", "value": 261, "unit": "µM"}, {"measurement": "EC50 (syncytium formation)", "setting": "pNL4-3gp41(36G)V38E,N42S", "value": 0.00374, "unit": "µg/mL"}, {"measurement": "EC50", "setting": "[2]", "value": 0.00176, "unit": "µg/mL"}, {"measurement": "EC50 (syncytium formation)", "setting": "pNL4-3gp41(36G)V38A,N42T", "value": 0.00381, "unit": "µg/mL"}, {"measurement": "selectivity index CC50/EC50", "setting": "HIV-1IIIB; C8166 cells, HIV-1IIIB", "value": 12193.33}, {"measurement": "EC50", "setting": "HIV-1IIIB; [4]", "value": 0.0015, "unit": "µg/mL"}, {"measurement": "CC50", "setting": "in vitro", "value": 18.3, "unit": "µg/mL"}]}]}
